Experimental data published in patent EP4635500A1, “THERAPEUTIC AGENT FOR BACTERIAL INFECTION” (Sumitomo Pharma Co., Ltd., priority 2022, dated 2024).
Where two headings read alike, the source gives them in different places.

Columns and labels:
[1] = system: 53 CRE and CPE strains; test: MICrange, MIC50, MIC80, MIC90 for 53 bacterial isolates (Example 5, Table 5); type: cell-based
[2] = system: P. aeruginosa; test: MIC, broth microdilution, CDC/FDA Antibiotic Resistance Isolate Bank (Example 7, Tables 10, 15); type: cell-based; conditions: for MIC: Pseudomonas aeruginosa, read-out: MIC
[3] = 26 metallo-carbapenemase-producing P. aeruginosa strains, β-lactamase inhibitor µg/mL in parentheses
[4] = 96 strains of P. aeruginosa, β-lactamase inhibitor µg/mL in parentheses

CN(C)c1cc(NC(=O)CNC(C)(C)C)c(O)c2c1C[C@H]1C[C@H]3[C@H](N(C)C)C(O)=C(C(N)=O)C(=O)[C@@]3(O)C(O)=C1C2=O [Tigecycline, tigecycline]
0.008 µg/mL: MIC ([2]; P. aeruginosa KUB No. 5814, AR Bank # 509) | MIC ([2]; P. aeruginosa KUB No. 5818, AR Bank # 513) | MIC ([2]; P. aeruginosa KUB No. 5820, AR Bank # 515)
16 µg/mL: MIC ([2]; P. aeruginosa KUB No. 5551, AR Bank # 54) | MIC ([2]; P. aeruginosa KUB No. 5597, AR Bank # 100) | MIC ([2]; P. aeruginosa KUB No. 5600, AR Bank # 103) | MIC ([2]; P. aeruginosa KUB No. 5662, AR Bank # 229) | MIC ([2]; P. aeruginosa KUB No. 5664, AR Bank # 231) | MIC ([2]; P. aeruginosa KUB No. 5677, AR Bank # 244) | MIC ([2]; P. aeruginosa KUB No. 5678, AR Bank # 245)
0.002 µg/mL: MIC ([2]; P. aeruginosa KUB No. 5815, AR Bank # 510) | MIC ([2]; P. aeruginosa KUB No. 5832, AR Bank # 527)
0.5 - 16 µg(mL): MIC against 96 strains of P. aeruginosa MICrange [2, 4]
0.5 µg/mL: MIC50 ([1]; 53 bacterial isolates, read-out: MIC50) | MIC ([2]; P. aeruginosa KUB No. 5685, AR Bank # 252)
2 µg/mL: MIC90 ([1]; 53 CRE and CPE strains, read-out: MIC90) | MIC90 ([1]; 53 bacterial isolates) | MIC ([2]; P. aeruginosa KUB No. 5561, AR Bank # 64) | MIC ([2]; P. aeruginosa KUB No. 5587, AR Bank # 90) | MIC ([2]; P. aeruginosa KUB No. 5592, AR Bank # 95) | MIC ([2]; P. aeruginosa KUB No. 5667, AR Bank # 234) | MIC ([2]; P. aeruginosa KUB No. 5670, AR Bank # 237) | MIC ([2]; P. aeruginosa KUB No. 5675, AR Bank # 242) | MIC ([2]; P. aeruginosa KUB No. 5681, AR Bank # 248) | MIC ([2]; P. aeruginosa KUB No. 5686, AR Bank # 253) | MIC ([2]; P. aeruginosa KUB No. 5688, AR Bank # 255) | MIC ([2]; P. aeruginosa KUB No. 5691, AR Bank # 258) | MIC ([2]; P. aeruginosa KUB No. 5693, AR Bank # 260) | MIC ([2]; P. aeruginosa KUB No. 5695, AR Bank # 262) | MIC ([2]; P. aeruginosa KUB No. 5697, AR Bank # 264) | MIC ([2]; P. aeruginosa KUB No. 5701, AR Bank # 268) | MIC ([2]; P. aeruginosa KUB No. 5705, AR Bank # 272) | MIC ([2]; P. aeruginosa KUB No. 5749, AR Bank # 353) | MIC ([2]; P. aeruginosa KUB No. 5752, AR Bank # 356) | MIC ([2]; P. aeruginosa KUB No. 5800, AR Bank # 457) | MIC ([2]; P. aeruginosa KUB No. 5806, AR Bank # 864)
0.016 µg/mL: MIC ([2]; P. aeruginosa KUB No. 5813, AR Bank # 508) | MIC ([2]; P. aeruginosa KUB No. 5817, AR Bank # 512) | MIC ([2]; P. aeruginosa KUB No. 5823, AR Bank # 518)
1 - 16 µg(mL): MIC against 26 metallo-carbapenemase-producing strains MICrange [2, 3]
4 µg/mL: MIC ([2]; P. aeruginosa KUB No. 579, AR Bank # 447) | MIC ([2]; P. aeruginosa KUB No. 5589, AR Bank # 92) | MIC ([2]; P. aeruginosa KUB No. 5663, AR Bank # 230) | MIC ([2]; P. aeruginosa KUB No. 5665, AR Bank # 232) | MIC ([2]; P. aeruginosa KUB No. 5669, AR Bank # 236) | MIC ([2]; P. aeruginosa KUB No. 5671, AR Bank # 238) | MIC ([2]; P. aeruginosa KUB No. 5672, AR Bank # 239) | MIC ([2]; P. aeruginosa KUB No. 5674, AR Bank # 241) | MIC ([2]; P. aeruginosa KUB No. 5679, AR Bank # 246) | MIC ([2]; P. aeruginosa KUB No. 5680, AR Bank # 247) | MIC ([2]; P. aeruginosa KUB No. 5682, AR Bank # 249) | MIC ([2]; P. aeruginosa KUB No. 5684, AR Bank # 251) | MIC ([2]; P. aeruginosa KUB No. 5692, AR Bank # 259) | MIC ([2]; P. aeruginosa KUB No. 5702, AR Bank # 269) | MIC ([2]; P. aeruginosa KUB No. 5704, AR Bank # 271) | MIC ([2]; P. aeruginosa KUB No. 5750, AR Bank # 354) | MIC ([2]; P. aeruginosa KUB No. 5754, AR Bank # 358) | MIC ([2]; P. aeruginosa KUB No. 5755, AR Bank # 359) | MIC ([2]; P. aeruginosa KUB No. 5756, AR Bank # 360) | MIC ([2]; P. aeruginosa KUB No. 5785, AR Bank # 439) | MIC ([2]; P. aeruginosa KUB No. 5787, AR Bank # 441) | MIC ([2]; P. aeruginosa KUB No. 5788, AR Bank # 443) | MIC ([2]; P. aeruginosa KUB No. 5789, AR Bank # 444) | MIC ([2]; P. aeruginosa KUB No. 5790, AR Bank # 445) | MIC ([2]; P. aeruginosa KUB No. 5793, AR Bank # 449) | MIC ([2]; P. aeruginosa KUB No. 5802, AR Bank # 459)
8 µg/mL: MIC ([2]; P. aeruginosa KUB No. 5591, AR Bank # 94) | MIC ([2]; P. aeruginosa KUB No. 5602, AR Bank # 105) | MIC ([2]; P. aeruginosa KUB No. 5605, AR Bank # 108) | MIC ([2]; P. aeruginosa KUB No. 5607, AR Bank # 110) | MIC ([2]; P. aeruginosa KUB No. 5608, AR Bank # 111) | MIC ([2]; P. aeruginosa KUB No. 5666, AR Bank # 23) | MIC ([2]; P. aeruginosa KUB No. 5668, AR Bank # 235) | MIC ([2]; P. aeruginosa KUB No. 5673, AR Bank # 240) | MIC ([2]; P. aeruginosa KUB No. 5690, AR Bank # 257) | MIC ([2]; P. aeruginosa KUB No. 5694, AR Bank # 261) | MIC ([2]; P. aeruginosa KUB No. 5698, AR Bank # 265) | MIC ([2]; P. aeruginosa KUB No. 5699, AR Bank # 266) | MIC ([2]; P. aeruginosa KUB No. 5700, AR Bank # 267) | MIC ([2]; P. aeruginosa KUB No. 5703, AR Bank # 270) | MIC ([2]; P. aeruginosa KUB No. 5747, AR Bank # 351) | MIC ([2]; P. aeruginosa KUB No. 5748, AR Bank # 352) | MIC ([2]; P. aeruginosa KUB No. 5751, AR Bank # 355) | MIC ([2]; P. aeruginosa KUB No. 5753, AR Bank # 357) | MIC ([2]; P. aeruginosa KUB No. 5786, AR Bank # 440) | MIC ([2]; P. aeruginosa KUB No. 5799, AR Bank # 456) | MIC ([2]; P. aeruginosa KUB No. 5801, AR Bank # 458) | MIC ([2]; P. aeruginosa KUB No. 5804, AR Bank # 862) | MIC ([2]; P. aeruginosa KUB No. 5805, AR Bank # 863)
1 µg/mL: MIC80 ([1]; 53 bacterial isolates, read-out: MIC80) | MIC ([2]; P. aeruginosa KUB No. 5676, AR Bank # 243) | MIC ([2]; P. aeruginosa KUB No. 5696, AR Bank # 263) | MIC ([2]; P. aeruginosa KUB No. 5798, AR Bank # 455)
0.004 µg/mL: MIC ([2]; P. aeruginosa KUB No. 5816, AR Bank # 511) | MIC ([2]; P. aeruginosa KUB No. 5819, AR Bank # 514) | MIC ([2]; P. aeruginosa KUB No. 5821, AR Bank # 516) | MIC ([2]; P. aeruginosa KUB No. 5831, AR Bank # 526) | MIC ([2]; P. aeruginosa KUB No. 5833, AR Bank # 528) | MIC ([2]; P. aeruginosa KUB No. 5834, AR Bank # 529)
0.12 to 16 µg/mL: MICrange ([1]; 53 bacterial isolates)
4 µg(mL): MIC against 26 metallo-carbapenemase-producing strains MIC50 [2, 3] | MIC against 96 strains of P. aeruginosa MIC50 [2, 4]
16 µg(mL): MIC against 26 metallo-carbapenemase-producing strains MIC90 [2, 3] | MIC against 96 strains of P. aeruginosa MIC90 [2, 4]
